Experimental data: ChEMBL document CHEMBL5465560, “Selectivity Literature for EUbOPEN Chemogenomic Library” (2024)

Experiments:
[1] = biological target: Serine/threonine-protein kinase PAK 6 (Homo sapiens) (UniProt Q9NQU5); experiment: Selectivity interaction (KinomeScan (DiscoverX)) EUB0000229b PAK6; settings: at 10 µM
[2] = biological target: Mitogen-activated protein kinase kinase kinase kinase 4 (Homo sapiens, UniProt O95819); experiment: Selectivity interaction (ProQinase) EUB0000171b MAP4K4
Mitogen-activated protein kinase kinase kinase kinase 4, sequence (O95819 2-1239 limits assumed): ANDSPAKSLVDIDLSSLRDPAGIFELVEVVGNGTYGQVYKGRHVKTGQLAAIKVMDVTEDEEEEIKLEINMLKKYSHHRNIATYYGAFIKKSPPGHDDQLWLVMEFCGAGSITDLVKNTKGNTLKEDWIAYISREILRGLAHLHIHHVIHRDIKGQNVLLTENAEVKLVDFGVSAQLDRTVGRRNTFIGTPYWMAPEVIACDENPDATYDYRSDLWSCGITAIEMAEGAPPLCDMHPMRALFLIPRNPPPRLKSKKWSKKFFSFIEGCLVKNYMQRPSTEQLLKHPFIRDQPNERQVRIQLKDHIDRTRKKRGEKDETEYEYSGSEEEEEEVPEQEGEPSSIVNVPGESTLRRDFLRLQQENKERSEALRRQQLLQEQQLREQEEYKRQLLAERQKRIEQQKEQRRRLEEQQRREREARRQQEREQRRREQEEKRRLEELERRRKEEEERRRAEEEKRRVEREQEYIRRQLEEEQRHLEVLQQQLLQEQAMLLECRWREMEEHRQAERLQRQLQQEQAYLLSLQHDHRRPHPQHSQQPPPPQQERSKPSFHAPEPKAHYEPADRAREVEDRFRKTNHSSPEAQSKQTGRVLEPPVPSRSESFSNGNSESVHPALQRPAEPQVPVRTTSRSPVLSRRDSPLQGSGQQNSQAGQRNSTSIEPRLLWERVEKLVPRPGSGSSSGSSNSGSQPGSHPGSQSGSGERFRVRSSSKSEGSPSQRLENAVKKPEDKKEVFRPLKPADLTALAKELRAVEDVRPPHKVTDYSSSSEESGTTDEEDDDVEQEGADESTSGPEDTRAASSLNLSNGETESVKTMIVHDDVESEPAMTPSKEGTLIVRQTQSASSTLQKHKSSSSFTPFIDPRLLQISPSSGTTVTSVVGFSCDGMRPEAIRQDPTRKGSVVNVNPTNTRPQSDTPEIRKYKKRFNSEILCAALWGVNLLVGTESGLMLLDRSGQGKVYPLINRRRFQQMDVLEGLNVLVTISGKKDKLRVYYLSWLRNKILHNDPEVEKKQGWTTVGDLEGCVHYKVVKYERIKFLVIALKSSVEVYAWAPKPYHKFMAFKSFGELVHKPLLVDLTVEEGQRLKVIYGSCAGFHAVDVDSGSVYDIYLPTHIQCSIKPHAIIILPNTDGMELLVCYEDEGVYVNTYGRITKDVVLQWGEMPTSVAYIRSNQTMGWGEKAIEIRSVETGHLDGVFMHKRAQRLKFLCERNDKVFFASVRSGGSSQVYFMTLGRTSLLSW

[3] = biological target: Cyclin-dependent kinase 2 (Homo sapiens, UniProt P24941); experiment: Selectivity interaction (Kinase panel (DSF assay)) EUB0001559a CDK2
[4] = biological target: T1, Dual serine/threonine and tyrosine protein kinase (Homo sapiens) (UniProt Q6XUX3); experiment: Selectivity interaction (KinomeScan (DiscoverX)) EUB0000666a DSTYK; settings: at 10 µM
T1 sequence (whole entry): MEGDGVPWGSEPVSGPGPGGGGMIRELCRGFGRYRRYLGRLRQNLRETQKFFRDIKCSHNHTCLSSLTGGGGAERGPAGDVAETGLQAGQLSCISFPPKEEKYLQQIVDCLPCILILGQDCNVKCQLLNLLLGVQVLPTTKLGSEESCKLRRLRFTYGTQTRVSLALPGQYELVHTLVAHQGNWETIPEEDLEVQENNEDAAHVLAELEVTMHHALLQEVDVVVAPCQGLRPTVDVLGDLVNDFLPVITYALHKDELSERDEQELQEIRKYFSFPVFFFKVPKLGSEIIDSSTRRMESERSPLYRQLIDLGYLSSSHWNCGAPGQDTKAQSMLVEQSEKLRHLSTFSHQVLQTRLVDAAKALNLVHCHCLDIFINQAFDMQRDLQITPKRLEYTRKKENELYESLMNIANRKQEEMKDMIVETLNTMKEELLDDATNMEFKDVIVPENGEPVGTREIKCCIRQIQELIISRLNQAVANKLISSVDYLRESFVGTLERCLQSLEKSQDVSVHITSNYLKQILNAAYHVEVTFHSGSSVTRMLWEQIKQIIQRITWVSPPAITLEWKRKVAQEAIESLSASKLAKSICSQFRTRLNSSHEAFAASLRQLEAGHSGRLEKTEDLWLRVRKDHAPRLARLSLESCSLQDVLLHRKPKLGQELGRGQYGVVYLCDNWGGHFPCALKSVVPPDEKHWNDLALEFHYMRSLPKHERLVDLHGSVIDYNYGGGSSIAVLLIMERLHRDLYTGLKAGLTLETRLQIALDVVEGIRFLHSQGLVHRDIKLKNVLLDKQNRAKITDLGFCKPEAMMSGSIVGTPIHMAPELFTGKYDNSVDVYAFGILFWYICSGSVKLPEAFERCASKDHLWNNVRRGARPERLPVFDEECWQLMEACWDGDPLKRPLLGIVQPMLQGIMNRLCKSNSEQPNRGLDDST

[5] = biological target: RAC-alpha serine/threonine-protein kinase (Homo sapiens, UniProt P31749); experiment: Selectivity interaction (Rxn Biology Kinase assay) EUB0001632a AKT1; settings: at 10 µM
RAC-alpha serine/threonine-protein kinase, sequence (P31749 whole entry): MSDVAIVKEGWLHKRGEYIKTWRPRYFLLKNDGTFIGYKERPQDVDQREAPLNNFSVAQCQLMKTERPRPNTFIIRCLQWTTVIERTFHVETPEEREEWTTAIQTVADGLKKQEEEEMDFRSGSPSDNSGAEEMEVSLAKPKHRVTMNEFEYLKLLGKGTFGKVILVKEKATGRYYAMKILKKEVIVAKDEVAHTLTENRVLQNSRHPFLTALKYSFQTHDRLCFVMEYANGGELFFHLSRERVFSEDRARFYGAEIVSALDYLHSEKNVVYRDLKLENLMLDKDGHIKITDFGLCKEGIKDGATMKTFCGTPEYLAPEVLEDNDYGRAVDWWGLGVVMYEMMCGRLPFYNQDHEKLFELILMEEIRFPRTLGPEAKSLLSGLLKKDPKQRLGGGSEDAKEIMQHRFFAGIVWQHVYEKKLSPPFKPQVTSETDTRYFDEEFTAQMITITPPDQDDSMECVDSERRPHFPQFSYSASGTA

[6] = biological target: SWI/SNF-related matrix-associated actin-dependent regulator of chromatin subfamily A member 2 (Homo sapiens, UniProt P51531); experiment: Selectivity interaction (Bromodomain panel (DSF asssay)) EUB0000270b SMARCA2
[7] = biological target: Protein arginine N-methyltransferase 8 (Homo sapiens, UniProt Q9NR22); experiment: Selectivity interaction (Transferase panel (protein, RNA, and DNA methyltransferases. and EP300 (acetyltransferase))) EUB0000270b PRMT8
Protein arginine N-methyltransferase 8, sequence (Q9NR22 2-394 limits assumed): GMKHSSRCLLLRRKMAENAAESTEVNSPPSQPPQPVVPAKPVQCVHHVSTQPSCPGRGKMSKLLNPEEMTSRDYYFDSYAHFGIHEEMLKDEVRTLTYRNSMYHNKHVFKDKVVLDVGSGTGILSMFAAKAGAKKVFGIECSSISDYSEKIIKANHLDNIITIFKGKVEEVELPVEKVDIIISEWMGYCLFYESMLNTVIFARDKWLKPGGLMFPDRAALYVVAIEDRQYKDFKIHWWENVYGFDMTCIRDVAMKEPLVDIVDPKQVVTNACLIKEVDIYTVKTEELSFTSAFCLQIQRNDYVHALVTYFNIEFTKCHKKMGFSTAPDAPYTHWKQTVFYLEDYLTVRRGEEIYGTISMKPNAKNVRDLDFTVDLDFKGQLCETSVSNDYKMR

[8] = biological target: T2, Megakaryocyte-associated tyrosine-protein kinase (Homo sapiens) (UniProt P42679); experiment: Selectivity interaction (Kinase panel (Invitrogen)) EUB0000639a MATK; settings: at 200 nM
T2 sequence (whole entry): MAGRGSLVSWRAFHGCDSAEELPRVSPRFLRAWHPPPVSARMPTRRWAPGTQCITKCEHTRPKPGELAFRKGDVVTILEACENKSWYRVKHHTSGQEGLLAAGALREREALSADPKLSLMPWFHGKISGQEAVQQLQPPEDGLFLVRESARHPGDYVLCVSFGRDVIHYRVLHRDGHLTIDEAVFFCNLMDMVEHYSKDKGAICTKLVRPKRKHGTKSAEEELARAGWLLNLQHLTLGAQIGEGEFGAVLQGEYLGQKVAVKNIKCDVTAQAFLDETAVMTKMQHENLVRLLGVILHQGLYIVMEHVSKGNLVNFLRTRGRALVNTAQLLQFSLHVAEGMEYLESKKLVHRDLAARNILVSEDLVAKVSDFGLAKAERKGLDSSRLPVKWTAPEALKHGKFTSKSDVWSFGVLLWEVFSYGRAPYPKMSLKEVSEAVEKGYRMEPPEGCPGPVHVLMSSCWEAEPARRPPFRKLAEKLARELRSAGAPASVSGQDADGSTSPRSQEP

[9] = biological target: Calcium/calmodulin-dependent protein kinase type II subunit delta (Homo sapiens) (UniProt Q13557); experiment: Selectivity interaction (ActivX KiNativ screen (kinase selectivity in THP-1 cell lysates)) EUB0000639a CAMK2D; type: subcellular; settings: lysate, at 0.2 µM
[10] = biological target: Fibroblast growth factor receptor 4 (Homo sapiens, UniProt P22455); experiment: Selectivity interaction (Kinase panel (Invitrogen)) EUB0000639a FGFR4; settings: at 200 nM
Fibroblast growth factor receptor 4, sequence (P22455 22-802 limits assumed): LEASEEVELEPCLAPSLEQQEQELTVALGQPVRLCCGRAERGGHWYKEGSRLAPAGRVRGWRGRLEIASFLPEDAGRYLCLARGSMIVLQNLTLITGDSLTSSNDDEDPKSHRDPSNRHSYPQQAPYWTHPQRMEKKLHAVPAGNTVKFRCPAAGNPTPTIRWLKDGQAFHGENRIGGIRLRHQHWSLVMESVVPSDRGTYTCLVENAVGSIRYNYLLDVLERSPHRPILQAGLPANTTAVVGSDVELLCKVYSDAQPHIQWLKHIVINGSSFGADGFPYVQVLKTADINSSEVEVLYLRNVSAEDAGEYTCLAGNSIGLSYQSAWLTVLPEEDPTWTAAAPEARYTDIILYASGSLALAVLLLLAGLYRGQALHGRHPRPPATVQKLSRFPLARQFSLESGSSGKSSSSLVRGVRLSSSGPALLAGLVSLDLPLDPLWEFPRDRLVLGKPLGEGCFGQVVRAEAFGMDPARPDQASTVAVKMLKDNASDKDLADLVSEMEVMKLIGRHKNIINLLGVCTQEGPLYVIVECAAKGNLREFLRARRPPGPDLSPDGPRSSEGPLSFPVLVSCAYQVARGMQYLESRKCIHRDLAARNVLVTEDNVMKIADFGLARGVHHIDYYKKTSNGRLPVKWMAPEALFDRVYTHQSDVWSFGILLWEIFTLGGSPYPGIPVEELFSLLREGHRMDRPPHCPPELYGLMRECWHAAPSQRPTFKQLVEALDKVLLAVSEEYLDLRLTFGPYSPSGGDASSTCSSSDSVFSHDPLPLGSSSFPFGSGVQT

[11] = biological target: Ribosomal protein S6 kinase alpha-3 (Homo sapiens, UniProt P51812); experiment: Selectivity interaction (KinomeScan (DiscoverX)) EUB0000618a RPS6KA3; settings: at 10 µM
Ribosomal protein S6 kinase alpha-3, sequence (P51812 whole entry): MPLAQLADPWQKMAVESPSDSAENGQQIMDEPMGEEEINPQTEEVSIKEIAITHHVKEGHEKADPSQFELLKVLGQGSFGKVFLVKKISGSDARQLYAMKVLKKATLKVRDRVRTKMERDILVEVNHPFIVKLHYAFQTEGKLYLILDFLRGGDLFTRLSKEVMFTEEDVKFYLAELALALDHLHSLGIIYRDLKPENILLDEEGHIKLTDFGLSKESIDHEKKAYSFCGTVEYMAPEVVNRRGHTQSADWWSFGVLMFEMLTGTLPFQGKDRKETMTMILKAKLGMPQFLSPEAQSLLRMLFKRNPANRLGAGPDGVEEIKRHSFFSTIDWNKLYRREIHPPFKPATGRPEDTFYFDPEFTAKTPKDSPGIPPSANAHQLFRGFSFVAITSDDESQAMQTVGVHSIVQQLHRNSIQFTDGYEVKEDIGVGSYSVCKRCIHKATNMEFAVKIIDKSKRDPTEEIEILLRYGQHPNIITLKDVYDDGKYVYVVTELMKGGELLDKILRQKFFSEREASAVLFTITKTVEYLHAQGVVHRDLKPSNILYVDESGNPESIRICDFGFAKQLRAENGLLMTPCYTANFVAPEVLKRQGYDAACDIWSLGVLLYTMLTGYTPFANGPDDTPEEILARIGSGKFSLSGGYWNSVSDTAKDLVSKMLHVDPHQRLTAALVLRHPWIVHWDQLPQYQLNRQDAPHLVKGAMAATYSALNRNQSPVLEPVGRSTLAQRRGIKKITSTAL

[12] = biological target: Cyclin-dependent kinase 5 (Homo sapiens, UniProt Q00535); experiment: Selectivity interaction (Ambit KINOMEscan and KiNATiv profiling in Jurkat cells) EUB0000090b CDK5; type: cell-based; settings: at 1 µM
Cyclin-dependent kinase 5, sequence (Q00535 whole entry, looked up): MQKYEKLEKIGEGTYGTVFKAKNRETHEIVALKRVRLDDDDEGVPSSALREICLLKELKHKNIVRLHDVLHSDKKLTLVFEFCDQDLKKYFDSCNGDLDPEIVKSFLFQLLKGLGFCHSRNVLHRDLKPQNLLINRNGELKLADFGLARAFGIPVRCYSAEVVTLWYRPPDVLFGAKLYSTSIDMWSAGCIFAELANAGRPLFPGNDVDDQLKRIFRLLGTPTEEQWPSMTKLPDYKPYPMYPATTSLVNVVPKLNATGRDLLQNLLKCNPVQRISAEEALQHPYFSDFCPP

Serine/threonine-protein kinase PAK 6 (Homo sapiens), sequence (Q9NQU5 whole entry, looked up): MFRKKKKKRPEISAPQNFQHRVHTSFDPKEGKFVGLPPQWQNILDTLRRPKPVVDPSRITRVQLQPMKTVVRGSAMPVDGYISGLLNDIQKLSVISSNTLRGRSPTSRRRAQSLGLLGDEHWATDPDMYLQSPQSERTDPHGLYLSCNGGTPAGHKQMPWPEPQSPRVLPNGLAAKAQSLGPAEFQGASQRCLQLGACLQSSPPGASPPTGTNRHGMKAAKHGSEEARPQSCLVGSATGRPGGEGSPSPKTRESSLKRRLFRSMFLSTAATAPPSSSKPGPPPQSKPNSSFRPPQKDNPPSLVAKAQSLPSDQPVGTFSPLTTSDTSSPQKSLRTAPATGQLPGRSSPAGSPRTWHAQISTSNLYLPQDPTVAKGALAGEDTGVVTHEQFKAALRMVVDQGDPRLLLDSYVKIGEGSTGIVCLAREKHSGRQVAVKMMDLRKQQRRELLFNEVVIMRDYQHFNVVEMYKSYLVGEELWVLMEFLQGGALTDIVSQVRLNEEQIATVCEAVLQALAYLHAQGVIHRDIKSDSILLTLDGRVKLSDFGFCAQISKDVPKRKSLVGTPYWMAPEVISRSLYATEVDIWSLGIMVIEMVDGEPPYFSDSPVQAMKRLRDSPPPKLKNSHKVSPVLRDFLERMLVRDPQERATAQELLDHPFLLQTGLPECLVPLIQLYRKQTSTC

`COc1cc(N(C)c2ccnc3ccc(C(F)(F)F)cc23)cc(OC)c1OC` was tested. Which % binding [1] did it give?
Its % binding is 96%.

What does the source list for `C=CC(=O)Nc1cccc(C(=O)Nc2ccc(Nc3cc(-c4[nH]c(SC)nc4C)ccn3)cc2)c1`?
% of control ([2]; at 1 µM): 79%; % of control ([2]; at 5 µM): 55%

Which dTM [3] does the source give for `CN(C(=O)c1cnn2cccnc12)c1cc2c(cc1N1CCOCC1)C(=O)N(C[C@@H](F)C(C)(C)O)C2` here?
The dTM was -0.3 K.

With `O=C(NOC[C@H](O)CO)c1ccc(F)c(F)c1Nc1ccc(I)cc1F` as the compound, how does the % of control [4] read?
The % of control was 100%.

For `Cn1cc(-n2cnc3c(NCc4nc5cc(Cl)c(Cl)cc5[nH]4)nc(N4CCOCC4)nc32)cn1`, which % of inhibition [5] is on record?
The % of inhibition was 0.245%.

Which dTM [6] does the source give for `Cc1cc(CN)cc(C)c1-c1ncn(C)c1-c1cncn1C` here?
Its dTM is -0.5 K.

And the % activity ([7]; at 1 µM)?
Its % activity is greater than 90%.

And the % activity ([7]; at 10 µM)?
Its % activity is greater than 80%.

`CC[C@@H]1[C@H](F)C(=O)N[C@@H]1COc1nccc2cc(C(N)=O)c(OC)cc12` [ZIMLOVISERTIB] was tested. Which % of inhibition [8] did it give?
Its % of inhibition is 1.51%.

And the % of inhibition [9]?
The % of inhibition was 6.9%.

And the % of inhibition [10]?
The % of inhibition was 3.68%.

With `O[C@H]1CC[C@H](Nc2ncc3nc(Nc4c(F)cc(F)cc4F)n([C@H]4CCOC4)c3n2)CC1` as the compound, how does the % of control [11] read?
Its % of control is 60%.

For `CN(C)C/C=C/C(=O)Nc1ccc(C(=O)N2CCCC(Nc3ncc(Cl)c(-c4c[nH]c5ccccc45)n3)C2)cc1` (centres undefined), which % of control [12] is on record?
The % of control was 89%.
